Test results taken from PMC12512767, “Discovery of new aurone derivatives as submicromolar CK2 inhibitors” (Journal of Enzyme Inhibition and Medicinal Chemistry, 2025).

target: T1, recombinant human protein kinase CK2 alpha subunit (Homo sapiens, UniProt P68400); test: Capillary electrophoresis (CE) CK2 assay; assay type: biochemical; settings: ATP 100 µM, peptide substrate 100 µM; 30 °C, 40 min; triplicate; Hill fit
Experimental: (§1) The study was conducted using recombinant human protein kinase CK2 alpha subunit, obtained using plasmid pZW6 (Addgene, USA, catalogue number 27086), ATP (Sigma-Aldrich, USA, catalogue number A2383) and peptide substrate RRRDDDSDDD (GenScript, USA, catalogue number RP10318). Tris(hydroxymethyl)aminomethane hydrochloride (Tris-HCl) (Sigma-Aldrich, USA, catalogue number 10812846001), KCl (Sigma-Aldrich, USA, catalogue number P3911) and MgCl2 (Sigma-Aldrich, USA, catalogue number 208337) were used to prepare the reaction buffer. Dimethyl sulfoxide (DMSO) (Sigma-Aldrich, USA, catalogue number 472301) was used as a solvent for the compounds. Luminescent assays were performed using Kinase-Glo® kit (Promega, USA, catalogue number V6711). Aurone derivatives were synthesised following the procedure[20] described earlier starting from the benzo[e]benzofuran-1-one intermediate obtained in a known manner. The structures of tested aurone derivatives are given in the Results section.
(§2) The reaction mixture volume was 50 μl. The reaction buffer contained 2 mM Tris HCl, 5 mM KCl and 1 mM MgCl2, pH 7.5. The concentration of CK2 alpha subunit was 2 mg/l per sample in control and experimental samples. The reaction mixtures contained 0.5 μl of inhibitor solution in DMSO per sample (final inhibitor concentrations were different in luminescent and CE assays) or 0.5 μl of pure DMSO in control and calibration samples. The samples were incubated at 30 °C for 40 min.
The initial concentrations of ATP and peptide substrate were 100 µM. The reaction was stopped by adding 100 μl of 20 mM EDTA disodium salt. All IC50 studies were performed in triplicate. Mean conversion values for each concentration were used for construction of the conversion-versus-concentration curves and IC50 determination.
The conversion was determined by the formula: C=100∗P/P+N
C is the conversion in percent, P is the peak area of the phosphorylated product, and N is the peak area of the substrate.
Inhibition was calculated using the formula: I=100∗ Co−Ce/Co
I – inhibition in percent, Со – conversion in control sample, Се – conversion in experimental sample.
For the tested compounds, inhibition curves were plotted as a function of concentration and fitted using the Hill equation: y=x^n/k^n+x^n y – inhibition in percent, x – inhibitor concentration, k – IC50 value, n – Hill coefficient.
Inhibition curves were built using at least four data points, with additional concentrations tested for some compounds to refine the curve’s shape. The IC50 value was determined from the fitted curve as the concentration producing 50% inhibition.
All electrophoretic separations were performed with a capillary electrophoresis system Сapel-105M (Lumex). Fused silica (Lumex) of a total length of 75 cm (effective length 65 cm) with inner diameter 50 μm was used. Before use, fused silica was washed for 5 min with 0.1 M HCl solution, then 5 min with distilled water, then 5 min with 0.1 M NaOH solution, again for 5 min with distilled water and for 5 min with background electrolyte (BGE).
A 150 mM orthophosphoric acid (pH 1.2) was used as BGE. Before electrophoretic separation, 350 μl of deionised water was added to the samples. Samples were introduced hydrodynamically at 900 mbar*s. The electrophoresis voltage was 25 kV. Electrophoretic separation was carried out in positive polarity. Detection conducted at a wavelength of 192 nm. Instrument control, data collection and integration were performed with Elforun (Lumex) software.

T1 sequence (P68400 whole entry): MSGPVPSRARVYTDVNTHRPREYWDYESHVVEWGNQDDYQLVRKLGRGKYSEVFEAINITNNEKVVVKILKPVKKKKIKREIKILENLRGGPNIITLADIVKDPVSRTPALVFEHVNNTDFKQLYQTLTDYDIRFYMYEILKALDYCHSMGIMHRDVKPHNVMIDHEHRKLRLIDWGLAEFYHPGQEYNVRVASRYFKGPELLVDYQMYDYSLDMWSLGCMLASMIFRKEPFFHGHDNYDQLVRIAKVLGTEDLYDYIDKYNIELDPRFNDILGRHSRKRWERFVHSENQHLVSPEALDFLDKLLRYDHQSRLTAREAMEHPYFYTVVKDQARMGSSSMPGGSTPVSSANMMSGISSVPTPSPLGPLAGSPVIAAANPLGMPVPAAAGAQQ

Compound | IC50
COc1cc(C=C2Oc3ccc4ccccc4c3C2=O)cc([N+](=O)[O-])c1O [BFO26] | 130 nM
O=C1C(=Cc2ccc(O)c(Br)c2)Oc2ccc3ccccc3c21 [BFO27] | 13 nM
O=C1C(=Cc2ccc(O)c([N+](=O)[O-])c2)Oc2c1ccc1ccccc21 [BFO22] | 680 nM
O=C1C(=Cc2ccc(O)c(F)c2)Oc2ccc3ccccc3c21 [BFO24] | 220 nM
COc1cc(C=C2Oc3ccc4ccccc4c3C2=O)ccc1O [BFO23] | 130 nM
O=C1C(=Cc2ccc(O)c(Cl)c2)Oc2ccc3ccccc3c21 [BFO25] | 3 nM

target: T1, recombinant human protein kinase CK2 alpha subunit; test: Luminescent (Kinase-Glo) CK2 screening assay; assay type: biochemical; settings: inhibitor 1 μM; ATP 10 µM, peptide substrate RRRDDDSDDD 200 µM; 30 °C, 40 min; triplicate; LI = luciferase inhibition (luminescence lower than control)
Experimental: as §1, §2
The luminescent assay measured sample luminescence following the addition of the Kinase-Glo luciferase mixture, with the signal reflecting the remaining ATP content. The final ATP concentration indicates the extent of peptide phosphorylation: higher ATP levels correspond to lower peptide phosphorylation. This method was considered as a rapid and straightforward approach for screening a large number of compounds without quantitatively determining their activity.
ATP and peptide substrate were initially present at concentrations of 10 µM and 200 µM, respectively. Calibration samples, which lacked the enzyme, represented the initial ATP concentration. The inhibitor concentration in experimental samples was 1 µM. Measurements were performed using a LuMate 4400 microplate reader (Awareness Technology, USA). Luminescence was recorded after adding 50 µL of the Kinase-Glo luminescent mixture to each sample. In order to simplify the screening process, no signal–concentration calibration curve was constructed for precise ATP quantification. Instead, luminescence values of experimental and control samples were compared directly with those of enzyme-free calibration samples, which reflected the initial ATP level. The percentage of inhibition was determined by the formula: I=100∗(Me−Mc)/(Mo−Mc)
I is the inhibition in percent, Me, Mc and Mo are the luminescence of the experimental, calibration and control samples, respectively. The experiments were performed in triplicate, after which the obtained values were averaged.
This effect may result from the inhibition of luciferase activity. The decrease in luminescence reflects not increased ATP consumption by CK2 during peptide phosphorylation, but rather reduced oxyluciferin formation – the luminescent product – caused by luciferase inhibition by the test compound. The manufacturer of the Kinase-Glo kit, as well as practical studies of protein kinases claim the possibility of this effect[23]^,[24]. […] Furthermore, some compounds with potential luciferase inhibitory activity could have produced false-negative results.
This deviation was most pronounced in samples with low absolute luminescence values (and consequently, low inhibition).

Compound | I (%) (inhibition)
COc1ccc2c(c1)OC(=Cc1ccc(O)cc1)C2=O [Compound 9] | <25%
Cc1cc(C=C2Oc3ccc(Cl)cc3C2=O)ccc1O [Compound 17] | <25%
O=C1C(=Cc2ccc(O)c(F)c2)Oc2c1ccc1ccccc21 [Compound 36] | <25%
O=C1/C(=C/c2cc(Br)c(O)c(Br)c2)Oc2ccc3ccccc3c21 [Compound 54] | 69 ± 1%
COc1cc(C=C2Oc3c(ccc4ccccc34)C2=O)ccc1O [Compound 28] | <25%
O=C1C(=Cc2cc(Cl)c(O)c(Cl)c2)Oc2ccc3ccccc3c21 [Compound 51] | 78 ± 22%
O=C1C(=Cc2ccc(O)c(O)c2)Oc2ccc3ccccc3c21 [Compound 41] | <25%
O=C(O)COc1ccc2c(c1)OC(=Cc1ccc(C(=O)O)cc1)C2=O [Compound 12] | <25%
O=C1C(=Cc2ccc(O)c(F)c2)Oc2ccc(Br)cc21 [Compound 15] | <25%
O=C(O)c1cc(C=C2Oc3c(ccc4ccccc34)C2=O)ccc1O [Compound 31] | <25%
COc1cc(C=C2Oc3ccc4ccccc4c3C2=O)cc([N+](=O)[O-])c1O [BFO26] | 90 ± 7%
O=C1C(=Cc2ccc(O)c(Br)c2)Oc2c1ccc1ccccc21 [Compound 34] | <25%
O=C1/C(=C/c2ccccc2O)Oc2cc(O)ccc21 [Compound 3] | <25%
O=C1C(=Cc2ccc(O)cc2)Oc2c1ccc1ccccc21 [Compound 23] | <25%
Cc1cc(C=C2Oc3ccc4ccccc4c3C2=O)ccc1O [Compound 45] | <25%
COc1cc(C=C2Oc3cc(O)ccc3C2=O)cc(Cl)c1O [Compound 5] | 48 ± 21%
O=C1/C(=C/c2ccc(O)c(F)c2)Oc2ccccc21 [Compound 1] | 36 ± 12%
COc1cccc(C=C2Oc3ccccc3C2=O)c1O [Compound 2] | <25%
O=C1C(=Cc2cc(Cl)c(O)c(Cl)c2)Oc2c1ccc1ccccc21 [Compound 33] | <25%
O=C1C(=Cc2ccc(O)c(Br)c2)Oc2ccc3ccccc3c21 [BFO27] | 86 ± 1%
O=C1C(=Cc2ccc(O)c([N+](=O)[O-])c2)Oc2c1ccc1ccccc21 [BFO22] | 80 ± 13%
O=C1C(=Cc2cccc(O)c2)Oc2ccc3ccccc3c21 [Compound 40] | <25%
COc1ccc2c(c1)OC(=Cc1ccccc1O)C2=O [Compound 7] | <25%

Compound | I (%) (inhibition)
O=C1C(=Cc2ccc(O)c(F)c2)Oc2c(Cl)ccc(Cl)c21 [Compound 19] | 61 ± 15%
COc1ccc2c(c1)OC(=Cc1cccc(O)c1)C2=O [Compound 8] | <25%
O=C(O)c1ccc(C=C2Oc3ccc4ccccc4c3C2=O)cc1 [Compound 39] | 69 ± 24%
O=C1C(=Cc2ccc(O)c(F)c2)Oc2ccc3ccccc3c21 [BFO24] | 95 ± 23%
O=C(O)COc1ccc2c(c1)OC(=Cc1cccc(F)c1)C2=O [Compound 11] | <25%
Cc1cc(C=C2Oc3ccc(Br)cc3C2=O)ccc1O [Compound 14] | <25%
COc1cc(C=C2Oc3ccc4ccccc4c3C2=O)ccc1O [BFO23] | 85 ± 14%
Cc1cc2c(c(C)c1Cl)C(=O)C(=Cc1ccc(O)c(F)c1)O2 [Compound 21] | <25%
COc1cc(C=C2Oc3ccc4ccccc4c3C2=O)cc(Cl)c1O [Compound 52] | 46 ± 15%
CCOc1cc(/C=C2\Oc3cc(O)ccc3C2=O)ccc1O [Compound 6] | <25%
Cc1cc(C=C2Oc3c(Cl)ccc(Cl)c3C2=O)ccc1O [Compound 18] | <25%
Cc1cc(/C=C2\Oc3cc(C)c(Cl)c(C)c3C2=O)ccc1O [Compound 20] | <25%
O=C1C(=Cc2ccc(O)c(F)c2)Oc2ccc(Cl)cc21 [Compound 16] | <25%
O=C(O)c1ccc(C=C2Oc3cc(O)ccc3C2=O)cc1 [Compound 4] | 41 ± 9%
O=C1C(=Cc2ccc(O)c(Cl)c2)Oc2ccc3ccccc3c21 [BFO25] | 88 ± 11%
COc1ccc2c(c1)OC(=Cc1ccc(O)c(OC)c1)C2=O [Compound 10] | 27 ± 19%
O=C(O)c1cc(C=C2Oc3ccc4ccccc4c3C2=O)ccc1O [Compound 48] | 32 ± 24%
O=C(O)c1ccc(C=C2Oc3c(ccc4ccccc34)C2=O)cc1 [Compound 22] | <25%
O=C1C(=Cc2ccc(O)c(Cl)c2)Oc2c1ccc1ccccc21 [Compound 32] | 68 ± 15%
O=C1C(=Cc2ccccc2O)Oc2ccc(O)cc21 [Compound 13] | <25%
O=C1C(=Cc2ccc(O)cc2)Oc2ccc3ccccc3c21 [Compound 38] | <25%
O=C1C(=Cc2cc(Br)c(O)c(Br)c2)Oc2c1ccc1ccccc21 [Compound 35] | 39 ± 14%
